Assay results published in ChEMBL document CHEMBL1140843, “Discovery of new inhibitors of D-alanine:D-alanine ligase by structure-based virtual screening” (J Med Chem, 2008).
pKi: −log10 of the molar value. Values after ≈ are worked out from the molar mass of the structure shown. Active and inactive are the calls of the source. No cut-off for these calls is given here.

What was measured:
[1] = Inhibition of Escherichia coli DdlB
Staphylococcus aureus = assay: Antibacterial activity against Staphylococcus aureus 8325-4 after 16 hrs broth microdilution method; assay type: functional; details: 8325-4, 16 h
Escherichia coli [2] = assay: Antibacterial activity against Escherichia coli SM1411 after 16 hrs broth microdilution method; assay type: functional
Escherichia coli [3] = assay: Inhibition of Escherichia coli DdlB at 250 uM preincubated for 15 mins before substrate addition measured after 20 mins
Escherichia coli [4] = assay: Antibacterial activity against Escherichia coli 1411 after 16 hrs broth microdilution method; assay type: functional

SMILES | pKi [1] | MIC (Staphylococcus aureus) [µg/mL] | MIC (Escherichia coli [2]) [µg/mL] | Activity (Escherichia coli [3]) | MIC (Escherichia coli [4]) [µg/mL]
COc1ccc2nc3cc(Cl)ccc3c(Nc3ccc(O)c(CN4CCN(C)CC4)c3)c2c1 | 3.66 | 32 (≈ 69.1 µM) | 64 (≈ 138 µM) | Active | –
N[C@@H]1CONC1=O [CYCLOSERINE] | 4.66 | – | – | – | –
COc1ccc2c(c1)c1c(C)c3cnccc3c(C)c1n2CCCN | 4.96 | 32 (≈ 96 µM) | 8 (≈ 24 µM) | Active | 32 (≈ 96 µM)
C[C@@H](N)C(=O)NP(=O)(O)O | 4.30 | – | – | – | –
CS[C@@H](CP(=O)(O)[C@@H](C)N)C(=O)O | 5.40 | – | – | – | –
CC(C)(CCl)C(=O)Nc1ccc(C(F)(F)F)cc1 | 5.40 | – | – | – | –
N[C@@H](C[C@H]1C[C@]1(C(=O)O)c1ccccc1)C(=O)O | 4.90 | – | – | – | –
O=C(/N=N/C(=O)Nc1ccc(Cl)cc1)NCc1cccnc1 | 4.48 | – | – | – | –
C/C(O)=C(\C#N)C(=O)Nc1cc(Br)ccc1Br | 3.73 | – | – | – | –
